Measurements taken from patent US10906938B2, “Cell epitopes and combination of cell epitopes for use in the immunotherapy of myeloma and other cancers” (Immatics Biotechnologies GmbH, priority 2015, dated 2021).

What was measured:
MM.1S cells = test: HLA class I ligand presentation upon carfilzomib treatment on MM.1S cells (LC-MS/MS); type: cell-based, human; design: key to modulation upon carfilzomib-treatment 24 #1 / modulation upon carfilzomib-treatment 24 #2 / modulation upon carfilzomib-treatment 24 #3 / modulation upon carfilzomib-treatment 48 #1 / modulation upon carfilzomib-treatment 48 #2 / modulation upon carfilzomib-treatment 48 #3: −1: significantly down-modulated; 0: not signifcant/not detected; 1: significantly up-modulated; settings: for modulation upon carfilzomib-treatment 24 #1 / modulation upon carfilzomib-treatment 24 #2 / modulation upon carfilzomib-treatment 24 #3: 24 h after carfilzomib treatment (100 nM, 1 h); for modulation upon carfilzomib-treatment 24 #1 / modulation upon carfilzomib-treatment 48 #1: biological replicate #1; for modulation upon carfilzomib-treatment 24 #1 / modulation upon carfilzomib-treatment 24 #2 / modulation upon carfilzomib-treatment 24 #3 / modulation upon carfilzomib-treatment 48 #1 / modulation upon carfilzomib-treatment 48 #2 / modulation upon carfilzomib-treatment 48 #3: vs mock-treated controls; for modulation upon carfilzomib-treatment 24 #2 / modulation upon carfilzomib-treatment 48 #2: biological replicate #2; for modulation upon carfilzomib-treatment 24 #3 / modulation upon carfilzomib-treatment 48 #3: biological replicate #3; for modulation upon carfilzomib-treatment 48 #1 / modulation upon carfilzomib-treatment 48 #2 / modulation upon carfilzomib-treatment 48 #3: 48 h after carfilzomib treatment (100 nM, 1 h)
Experimental: (§1) HLA class I and II molecules were isolated using standard immunoaffinity purification as described using the pan-HLA class I specific mAb W6/32, the pan-HLA class II specific mAb T039 and the HLA-DR specific mAB L243 (produced in house).
(§2) HLA ligand extracts were analyzed in 5 technical replicates as described previously. In brief, peptide samples were separated by nanoflow HPLC (RSLCnano, ThermoFisher) using a 50 μm×25 cm PepMap RSLC column (Thermo Fisher) and a gradient ranging from 2.4 to 32.0% acetonitrile over the course of 90 min. Eluting peptides were analyzed in an online coupled LTQ Orbitrap XL mass spectrometer (Thermo Fisher) using a top 5 CID (collision induced dissociation) fragmentation method.
(§3) Data processing was performed as described previously. In brief, the Mascot search engine (Mascot 2.2.04; Matrix Science, London, UK) was implemented to search the human proteome as comprised in the Swiss-Prot database (20,279 reviewed protein sequences, September 2013) without enzymatic restriction. Potential mutated HLA ligands were searched implementing a database containing the human proteome concatenated with proteins containing single amino acid variants (SAVs) listed in the COSMIC database (http://cancer.sanger.ac.uk/cosmic/). Only recurrent SAVs described in 2 or more samples of hematological origin were included. Oxidized methionine was allowed as a dynamic modification. The false discovery rate was estimated using the Percolator algorithm and set to 5%. Peptide lengths were limited to 8-12 amino acids for HLA class I and 12-25 amino acids for HLA class II. Protein inference was disabled, allowing for multiple protein annotations of peptides. HLA annotation was performed using SYFPEITHI [46] or an extended in-house database. Experimental validation of peptide identifications and HLA annotations was performed by mass spectrometric and functional characterization of synthetic peptides for a subset of peptides.
(§4) The inventors quantitatively assessed HLA class I ligand presentation during proteasome inhibitor therapy. Observed was a considerable plasticity of the HLA class I ligandome after treatment with carfilzomib with 17.9±1.1% of MM.1S ligands and 11.2±0.7% of U266 ligands (mean of three biological replicates ±s.d.) showing significant modulation (fold-change ≥4, Po0.01 after Benjamini-Hochberg correction) at t24 h compared with mock-treated controls. Briefly, Cultured MCLs (MM.1S and U266) and primary myeloma samples were incubated with carfilzomib (100 nM, Kyprolis®, available, e.g., from Onyx Pharmaceuticals, Inc.) as an example for a proteasome inhibitor for a 1-h period, followed by three washes in PBS (Gibco) and recultured for additional 24 or 48 h. Controls were incubated with vehicle control (glucose 5%) for 1 h, followed by identical washing and incubation for 24 or 48 h. Experiments were conducted in three biological replicates where indicated.

U266 cells = test: HLA class I ligand presentation upon carfilzomib treatment on U266 cells (LC-MS/MS); type: cell-based, human; design: key to modulation upon carfilzomib-treatment 24 #1 / modulation upon carfilzomib-treatment 24 #2 / modulation upon carfilzomib-treatment 24 #3 / modulation upon carfilzomib-treatment 48 #1 / modulation upon carfilzomib-treatment 48 #2 / modulation upon carfilzomib-treatment 48 #3: −1: significantly down-modulated; 0: not signifcant/not detected; 1: significantly up-modulated
Experimental: as §1, §2, §3, §4

[1] = carfilzomib 100 nM for 1 h, t24 h vs mock-treated controls, fold-change ≥4, Po0.01 after Benjamini-Hochberg correction, mean of three biological replicates ±s.d.
[2] = MM.1S cells, 24 h after carfilzomib treatment

| Molecule | modulation upon carfilzomib-treatment 24 #1 (MM.1S cells; MM.1S cells) | modulation upon carfilzomib-treatment 24 #2 (MM.1S cells; MM.1S cells) | modulation upon carfilzomib-treatment 24 #3 (MM.1S cells; MM.1S cells) | modulation upon carfilzomib-treatment 48 #1 (MM.1S cells; MM.1S cells) | modulation upon carfilzomib-treatment 48 #2 (MM.1S cells; MM.1S cells) | modulation upon carfilzomib-treatment 48 #3 (MM.1S cells; MM.1S cells) | also measured |
| --- | --- | --- | --- | --- | --- | --- | --- |
| AFIQAGIFQEF | −1 | 0 | −1 | 0 | 0 | −1 |  |
| CC(C)C[C@H](NC(=O)[C@H](CCc1ccccc1)NC(=O)CN1CCOCC1)C(=O)N[C@@H](Cc1ccccc1)C(=O)N[C@@H](CC(C)C)C(=O)[C@@]1(C)CO1 [carfilzomib, reference compound] |  |  |  |  |  |  | U266 ligands showing significant modulation (U266 cells; [1]): 11.2±0.7%; MM.1S ligands showing significant modulation (MM.1S cells; [1]): 17.9±1.1% |
| NEFPVFDEF | 0 | 0 | 0 | 0 | 0 | 0 |  |
| RPQLKGVVL | 0 | 0 | 0 | 0 | 0 | 0 | modulation upon carfilzomib-treatment 24 #1 (U266 cells; U266 cells, 24 h after carfilzomib treatment (100 nM, 1 h), biological replicate #1, vs mock-treated controls): 0; modulation upon carfilzomib-treatment 24 #2 (U266 cells; U266 cells, 24 h after carfilzomib treatment (100 nM, 1 h), biological replicate #2, vs mock-treated controls): 0; modulation upon carfilzomib-treatment 24 #3 (U266 cells; U266 cells, 24 h after carfilzomib treatment (100 nM, 1 h), biological replicate #3, vs mock-treated controls): 0; modulation upon carfilzomib-treatment 48 #1 (U266 cells; U266 cells, 48 h after carfilzomib treatment (100 nM, 1 h), biological replicate #1, vs mock-treated controls): 0; modulation upon carfilzomib-treatment 48 #2 (U266 cells; U266 cells, 48 h after carfilzomib treatment (100 nM, 1 h), biological replicate #2, vs mock-treated controls): 0; modulation upon carfilzomib-treatment 48 #3 (U266 cells; U266 cells, 48 h after carfilzomib treatment (100 nM, 1 h), biological replicate #3, vs mock-treated controls): 0 |
| LAFPGEMLL (listed as Homo sapiens) [SEQ ID NO: 107] |  |  |  |  |  |  | modulation of peptide presentation upon carfilzomib treatment (MM.1S cells; [2]): no significant modulation |
| YYLNEIQSF | 0 | 0 | 0 | 0 | 0 | 0 |  |
| VPLPPKGRVL | 0 | 0 | 0 | 0 | 0 | 0 |  |
| RYSTQIHSF | 0 | 0 | 0 | 0 | 0 | 0 |  |
| NEVIMTIGF | 0 | 0 | 0 | 0 | 1 | 0 |  |
| TASPLVKSV | 0 | 0 | 0 | 0 | 1 | 0 |  |
| EYGHIPSF (listed as Homo sapiens) [SEQ ID NO: 42] |  |  |  |  |  |  | biological replicates with significant up-modulation (MM.1S cells; [2]): 2/3; modulation of peptide presentation upon carfilzomib treatment (MM.1S cells; [2]): significant up-modulation |
| YYLNEIQSF [SEQ ID NO: 228] |  |  |  |  |  |  | modulation of peptide presentation upon carfilzomib treatment (MM.1S cells; [2]): no significant modulation |
| SYLNSVQRL | 0 | 0 | 0 | 0 | 0 | 0 |  |
| LAFPGEMLL | 0 | 0 | 0 | 0 | 0 | 0 |  |
| FAQIISVALI | 0 | 0 | 0 | 0 | 0 | 0 |  |
| SPALPGLKL | 0 | 0 | 0 | 0 | 0 | 0 |  |
| VPLTRVSGGAA | 1 | 1 | 1 | 1 | 1 | 1 |  |
| SEFDFFERL | 0 | 0 | 0 | 0 | 0 | −1 |  |
| RYSPVLSRF | 0 | 0 | 0 | 0 | 0 | 0 |  |
| IEHPSMSVY | 1 | 1 | 1 | 0 | 1 | 1 |  |
| EYGHIPSF | 1 | 1 | 0 | 0 | 0 | 0 |  |
| RYLDLFTSF | −1 | −1 | −1 | 0 | −1 | −1 |  |
| TFLPFIHTI | 0 | 0 | 0 | 0 | 0 | 0 |  |
| RPHGGKSL | 0 | 0 | 0 | 0 | 0 | 0 |  |
| RYFKGPELL | 0 | 0 | 0 | 0 | 0 | 0 |  |
| YVFPGVTRL | 0 | 0 | 0 | −1 | 0 | 0 |  |
